Legend:
[1] = Blood concentration measurement test (oral administration to mice); format: in vivo; settings: 0.5% HPMC suspension, 50 mg/10 mL/kg, fed Balb/cA mice, compound (1) in plasma by LC-MS/MS
Description: A 0.5% HPMC dosing suspension (50 mg/10 mL/kg) of each of crystal I and crystal II was prepared. These suspensions were orally administered to mice (Balb/cA), which had been reared under feeding conditions, in a volume of 10 mL per kg body weight using an oral gavage tube. After administration, mice were returned to the mouse cage, and their conditions were checked. In the cage, water and feed were available ad libitum. At 0.5, 1, 2, 4, 6, and 8 hours after administration, mice were anesthetized with isoflurane, and 60 μL of blood was collected from the orbital venous plexus using a capillary blood collecting tube. The collected blood was ice-cooled, and centrifuged to separate plasma. The mice after blood collection were returned to the animal rearing cage, and their conditions after recovering from anesthesia were checked. After the final blood collection, the depth of isoflurane anesthesia was checked, and then the mice were euthanized by cervical dislocation.
From the concentrations of compound (1) in plasma measured by MRM method using LC-MS/MS, AUC0-24 hr was calculated by log-linear trapezoidal method using Phoenix WinNonlin (v6.3.0), software manufactured by Pharsight.

[2] = Solid stability test (under light exposure); format: physicochemical; settings: for Change of chemical purity / Change of crystal form by powder X-ray crystallography: 1 month under light exposure; for Chemical purity, Initial value / Chemical purity, One month later: HPLC; for Chemical purity, Initial value: before storage; for Chemical purity, One month later: stored 1 month under light exposure in clear glass bottle
Description: The solid stabilities of crystal I and crystal II obtained in the Examples, when stored for 1 month under light exposure, were measured under the following conditions.
Storage condition: Sample was placed in a transparent glass bottle, then the lid was placed, and the grove between the lid and the bottle was sealed by the grafting tape.
Measurement point: 1 Month
Stored amount: About 30 mg
Storage container: Clear glass bottle
Chemical purity of compound (1) in the sample solution was measured by HPLC analysis. The apparatuses, including the apparatus for data processing, were handled according to the processes and procedures instructed for the apparatuses. (Apparatus: Shimadzu Corporation LC-20AB)
Column: L-column 2 ODS manufactured by Chemicals Evaluation and Research Institute, 4.6×150 mm, 5 μm
Column temperature: 50° C.
Column flow rate: 1.0 mL/min
Mobile phase: A; Water, B; Acetonitrile
Sample concentration: 1.0 mg/mL

Structure (SMILES): C[C@@H](NS(=O)(=O)CCCOCn1ccc(=O)[nH]c1=O)c1cccc(OC2CCCC2)c1 [Crystal I, (R)—N-(1-(3-(cyclopentyloxy)phenyl)ethyl)-3-((2,4-dioxo-3,4-dihydropyrimidin-1(2H)-yl)methoxy)propane-1-sulfonamide]
- AUC(0-t) ([1]; Balb/cA, mouse, plasma, po, 50 mg/kg, read-out: AUC0-24 hr): 122 µM·h
- Change of chemical purity [2]: did not change
- Change of crystal form by powder X-ray crystallography [2]: no change of crystal form
- Chemical purity, Initial value [2]: 97.8%
- Chemical purity, One month later [2]: 97.4%

Structure (SMILES): C[C@@H](NS(=O)(=O)CCCOCn1ccc(=O)[nH]c1=O)c1cccc(OC2CCCC2)c1 [Crystal II, (R)—N-(1-(3-(cyclopentyloxy)phenyl)ethyl)-3-((2,4-dioxo-3,4-dihydropyrimidin-1(2H)-yl)methoxy)propane-1-sulfonamide]
- AUC0-24 hr [1]: 144.51 µM·h
- Change of chemical purity [2]: did not change
- Change of crystal form by powder X-ray crystallography [2]: no change of crystal form
- Chemical purity, Initial value [2]: 99.0%
- Chemical purity, One month later [2]: 99.1%
